Reference: BindingDB's records for doi:10.1016/j.ejmech.2023.115542 (University of Turin, 2023)

Assay: Inhibition of NLRP3-dependent pyroptosis in PMA-differentiated human THP-1 cells assessed as inhibition of LPS/ATP-induced cell death pretreated for 4 hrs with LPS followed by incubation with compound for 1 hr and later treated with ATP for 1.5 hrs by LDH assay

CCOC(=O)Cn1nc(Cc2ccccc2Cl)oc1=O
IC50: 1550 nM
